One data set concerns the target T1, human CK1 delta (Homo sapiens, UniProt P48730).
T1 construct: purchased Invitrogen Corporation PV3665
Briefly: FRET fluorescence test, Z'Lyte kinase assay kit, CK1 delta. The note with it: peptide SER/THR 11 2 μM, ATP 4 times KM. Type of data set: biochemical. From the text:
The capacity of the compounds of the invention to inhibit the phosphorylation of casein by the casein kinases 1 epsilon and delta may be evaluated using an FRET (Fluorescence Resonance Energy Transfer) fluorescence test with the aid of the “Z′Lyte™ kinase assay kit” (reference PV3670; Invitrogen Corporation™) according to the manufacturer's instructions.
The casein kinases 1 used are obtained from Invitrogen Corporation (human CK1 epsilon PV3500 and human CK1 delta PV3665).
A peptide substrate, labeled at both ends with a fluorophore-donating group (coumarin) and a fluorophore-accepting group (fluorescein) constituting an FRET system is […] in the presence of ATP by casein kinase 1 epsilon or delta in the presence of increasing concentrations of compounds of the invention.
The mixture is treated with a site-specific protease that specifically cleaves the substrate peptide to form two fluorescent fragments having a large fluorescence emission ratio.
The fluorescence observed is thus related to the capacity of the products of the invention to inhibit the phosphorylation of the substrate peptide by casein kinase 1 epsilon or casein kinase 1 delta.
The compounds of the invention are dissolved at different concentrations starting with a 10 mM stock solution in DMSO diluted in a buffer containing 50 mM HEPS, pH 7.5, 1 mM EGTA, 0.01% Brij-35, 10 mM MgCl2 for casein kinase 1 epsilon and supplemented with Trizma Base (50 mM), pH 8.0 and NaN3 (0.01% final) for casein kinase 1 delta.
The phosphorylation of the substrate peptide SER/THR 11 obtained from Invitrogen Corporation™ is performed at a final concentration of 2 μM. The ATP concentration is 4 times the KM, this value being 2 μM for casein kinase 1 epsilon and 4 μM for casein kinase 1 delta.
The emitted fluorescence is measured at wavelengths of 445 and 520 nm (excitation at 400 nm).

Data set [1] deals with Mper1-luc Rat-1 (P2C4) fibroblasts. Briefly: Circadian cell assay (mPer1-luciferase reporter, period prolongation). It is filed as cell-based. The note with it: effective concentration that induces a 1-hour prolongation of the circadian period. The procedure: Experimental Protocols for Circadian Cell Assay
Mper1-luc Rat-1 (P2C4) fibroblast cultures were prepared by dividing the cultures every 3-4 days (about 10-20% of confluence) on 150 cm^2 degassed polystyrene tissue culture flasks (Falcon® #35-5001) and maintained in growth medium [EMEM (Cellgro #10-010-CV); 10% fetal bovine serum (FBS; Gibco #16000-044); and 50 I.U./mL of penicillin-streptomycin (Cellgro #30-001-CI)] at 37° C. and under 5% CO2.
Cells obtained from Rat-1 fibroblast cultures at 30-50% of confluence as described above were co-transfected with vectors containing the selection marker for resistance to zeocin for a stable transfection and a luciferase reporter gene directed by the promoter mPer-1. After 24 to 48 hours, the cultures were divided on 96-well plates and maintained in growth medium supplemented with 50-100 μg/mL of zeocin (Invitrogen® #45-0430) for 10-14 days. The zeocin-resistant stable transfectants were evaluated for expression of the reporter by adding to the growth medium luciferin 100 μM (Promega® #E1603®) and by assaying the luciferase activity on a TopCount® scintillation counter (Packard model #C384V00). The Rat-1 cell clones expressing both zeocin resistance and luciferase activity directed by mPer1 were serum-shock synchronized with 50% horse serum [HS (Gibco® #16050-122)] and the activity of the circadian reporter was evaluated. The P2C4 clone of fibroblasts Mper1-luc Rat-1 was selected to test the compound.
The Mper1-luc Rat-1 (P2C4) fibroblasts at 40-50% of confluence obtained according to the protocol described above were plated out onto 96-well opaque tissue culture plates (Perkin Elmer® #6005680). The cultures are maintained in growth medium supplemented with 100 μg/mL of zeocin (Invitrogen #45-0430) until they reached 100% of confluence (48-72 hours). The cultures were then synchronized with 100 μL of synchronization medium [EMEM (Cellgro #10-010-CV); 100 I.U./mL of penicillin-streptomycin (Cellgro #30-001-C1); 50% HS (Gibco #16050-122)] for 2 hours at 37° C. and under 5% CO2. After synchronization, the cultures were rinsed with 100 μL of EMEM (Cellgro #10-010-CV) for 10 minutes at room temperature. After rinsing, the medium is replaced with 300 μL of CO2-independent medium [CO2I (Gibco #18045-088); L-glutamine 2 mM (Cellgro #25-005-C1); 100 U.I./mL of penicillin-streptomycin (Cellgro #30-001-C1); luciferin 100 μM (Promega #E 1603)]. […]
The two methods produced a virtually identical period estimation on a range of circadian periods. […] The data were analyzed by adjusting a hyperbolic curve to the data expressed as change of period (y-axis) as a function of the concentration of the test compound (x-axis) in the XLfit™ software and the CE Delta (t+1 h) was interpolated from this curve.
Background: In a reporter assay the amount or activity of a reporter protein is the signal.

Data set [2] has as its target casein kinase 1 epsilon (CK1 epsilon) (Homo sapiens, UniProt P49674). Briefly: Filter-plate assay of ATP-33P for CK1 epsilon inhibitors (casein phosphorylation). It is filed as biochemical. The note with it: inhibition of phosphorylation of casein, ATP-33P filter-plate, ATP 10 μM. The procedure:
The capacity of the compounds of the invention to inhibit the phosphorylation of casein by casein kinases 1 epsilon and delta may be evaluated according to the procedure described in document US 2005/0 131 012.
Filter-Plate Assay of ATP-^33P for the Screening of CK1 Epsilon Inhibitors:
The effect of the compounds on inhibition of the phosphorylation of casein by the enzyme casein kinase 1 epsilon (CK1 epsilon) is measured, using a casein assay via filtration of ATP-^33P in vitro.
Casein kinase 1 epsilon (0.58 mg/ml) is obtained via fermentation and purification processes performed according to methods that are well known to those skilled in the art, or may also be obtained from Invitrogen Corporation™ (human CK1 epsilon).
The compounds are tested at five different concentrations so as to generate IC50 values, i.e. the concentration at which a compound is capable of inhibiting the enzymatic activity by 50%, or alternatively the percentage of inhibition at a concentration of 10 micromolar.
“U”-bottomed Falcon plates are prepared by placing 5 μL of solutions of the compounds according to the invention at concentrations of 10, 1, 0.1, 0.01 or 0.001 μM in different wells. The solutions of the compounds according to the invention at these various concentrations are prepared by diluting in a test buffer (Tris 50 mM pH 7.5, MgCl2 […], DTT 2 mM and EGTA 1 mM) a stock solution in DMSO at a concentration of 10 mM. Next, 5 μL of dephosphorylated casein are added to a final concentration of 0.2 μg/μL, 20 μL of CK1 epsilon to a final concentration of 3 ng/μL, and 20 μL of ATP-^33P to a final concentration of 0.02 μCi/μL mixed with cold ATP (10 μM final—approximately 2×10^6 CPM per well). The final total test volume per well is equal to 50 μL.
The “U”-bottomed Falcon® test plate mentioned above is vortexed, and then incubated at room temperature for 2 hours. After 2 hours the reaction is stopped by adding an ice-cold solution of 65 μL of cold ATP (2 mM) prepared in test buffer.
100 μL of the reaction mixture are then transferred from the “U”-bottomed Falcon® plate into Millipore® MAPH filter plates, preimpregnated with 25 μL of ice-cold 100% TCA.
The Millipore MAPH filter plates are agitated gently and are left to stand at room temperature for at least 30 minutes to precipitate the proteins.
After 30 minutes, the filter plates are sequentially washed and filtered with 2×150 μL of 20% TCA, 2×150 μL of 10% TCA and 2×150 μL of 5% TCA (6 washes in total per plate/900 μL per well).
The plates are left to dry overnight at room temperature. Next, 40 μL of Microscint-20 Packard® scintillation liquid are added per well and the plates are closed in a leak tight manner. The radiation emitted by each well is then measured for 2 minutes in a TopCount NXT Packard® scintillation counter, in which the values of CPM/well are measured.
The percentage inhibition of the capacity of the enzyme to phosphorylate the substrate (casein) is determined for each concentration of test compound. These inhibition data expressed as percentages are used to calculate the IC50 value for each compound compared with the controls.
The kinetic studies determined the KM value for ATP as being 21 μM in this test system.

T1 sequence (P48730 whole entry): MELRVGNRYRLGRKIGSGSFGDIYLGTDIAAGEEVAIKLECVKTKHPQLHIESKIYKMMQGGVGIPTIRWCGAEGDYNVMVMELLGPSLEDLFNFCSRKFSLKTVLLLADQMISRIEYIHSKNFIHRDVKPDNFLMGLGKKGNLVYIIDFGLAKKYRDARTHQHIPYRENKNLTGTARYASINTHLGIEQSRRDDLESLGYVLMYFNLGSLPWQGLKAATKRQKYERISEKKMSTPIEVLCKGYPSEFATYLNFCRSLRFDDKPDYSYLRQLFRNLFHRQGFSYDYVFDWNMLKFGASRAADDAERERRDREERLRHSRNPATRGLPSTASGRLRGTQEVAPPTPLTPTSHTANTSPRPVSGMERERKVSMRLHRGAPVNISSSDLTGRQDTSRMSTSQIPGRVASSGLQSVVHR
Sequence of casein kinase 1 epsilon (CK1 epsilon) (P49674 whole entry): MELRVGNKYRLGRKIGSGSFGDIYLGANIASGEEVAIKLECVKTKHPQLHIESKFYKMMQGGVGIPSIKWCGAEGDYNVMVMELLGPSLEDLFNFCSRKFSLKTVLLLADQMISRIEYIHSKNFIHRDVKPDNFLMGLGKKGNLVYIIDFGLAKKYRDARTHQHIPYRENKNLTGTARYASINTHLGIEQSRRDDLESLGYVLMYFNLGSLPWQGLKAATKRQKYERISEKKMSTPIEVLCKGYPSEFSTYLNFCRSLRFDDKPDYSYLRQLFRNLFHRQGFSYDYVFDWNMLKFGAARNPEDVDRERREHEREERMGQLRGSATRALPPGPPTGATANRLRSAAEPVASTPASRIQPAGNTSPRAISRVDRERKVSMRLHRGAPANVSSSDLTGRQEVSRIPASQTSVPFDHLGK

The term IC50 denotes the point on the concentration scale where inhibition reaches its midpoint. Lower therefore signals inhibition by little substance. At human CK1 delta, `CC1(C)CN(c2ccc3nc(-c4cc(F)cc(F)c4)c(-c4ccncc4)n3n2)CCN1` [Compound 31, 2-(3,5-Difluorophenyl)-6-(3,3-dimethylpiperazin-1-yl)-3-pyrid-4-ylimidazo[1,2-b]pyridazine] displayed an IC50 of 0.091 to 0.093 µM.

In general, melting point refers to the temperature of the solid-liquid transition. `CC(C)N1CCN(c2ccc3nc(-c4ccc(Cl)cc4)c(-c4ccnc(N)c4)n3n2)CC1` [Compound 81, 4-[2-(4-Chlorophenyl)-6-(4-isopropylpiperazin-1-yl)imidazo[1,2-b]pyridazin-3-yl]pyrid-2-ylamine] had a melting point of 236 to 239 °C. For the same molecule, the IC50 at human CK1 delta lay in the range of 0.059 to 0.11 µM. Regarding `CN1CCN(c2ccc3nc(-c4ccc(F)cc4)c(-c4ccncc4)n3n2)CC1` [Compound 50, 2-(4-Fluorophenyl)-6-(4-methylpiperazin-1-yl)-3-pyrid-4-ylimidazo[1,2-b]pyridazine], inhibition against human CK1 delta was half-maximal at 0.005 µM (IC50). For the same molecule, the “CE Delta (t + 1 h)” value in data set [1] worked out at 28 nM. For `Cc1cc(C)cc(-c2nc3ccc(N4CCNC(C)(C)C4)nn3c2-c2ccnc(N)c2)c1` [Compound 30, 4-[2-(3,5-Dimethylphenyl)-6-(3,3-dimethylpiperazin-1-yl)imidazo[1,2-b]pyridazin-3-yl]pyrid-2-ylamine], half-maximal inhibition in data set [2] (IC50) was put at 0.06 µM. The same measure, in the same setting: in the case of `c1ccc(-c2nc3ccc(N4CCNCC4)nn3c2-c2ccncc2)cc1` [Compound 1, 2-Phenyl-6-piperazin-1-yl-3-pyrid-4-ylimidazo[1,2-b]pyridazine] it was 0.003 µM.

Molecule “{4-[2-(4-Fluorophenyl)-6-((R)-3-methylpiperazin-1-yl)imidazo[1,2-b]pyridazin-3-yl]pyrid-2-yl}methylamine [Compound 153]” had an IC50 in data set [2] of 0.008 µM. Further, in data set [1], the “CE Delta (t + 1 h)” value lay within 2 to 9 nM. Consider `CN(C)C1CCN(c2ccc3nc(-c4ccc(F)cc4)c(-c4ccncc4)n3n2)CC1` [Compound 146, {1-[2-(4-Fluorophenyl)-3-pyrid-4-ylimidazo[1,2-b]pyridazin-6-yl]piperid-4-yl}dimethylamine], for which the melting point was in the range of 193 to 195 °C. For the same molecule, the “CE Delta (t + 1 h)” value in data set [1] was 39 nM. Consider `c1ccc(-c2nc3ccc(N4CCC(N5CCCC5)CC4)nn3c2-c2ccncc2)cc1` [Compound 147, 2-Phenyl-3-pyrid-4-yl-6-(4-pyrrolidin-1-ylpiperid-1-yl)-imidazo[1,2-b]pyridazine], for which the IC50 against human CK1 delta was in the range of 0.05 to 0.053 µM; in data set [2], 0.022 to 0.116 µM. For the molecule `Cc1c(N2CCNCC2)nn2c(-c3ccncc3)c(-c3ccc(F)cc3)nc2c1C` [Compound 3, 2-(4-Fluorophenyl)-7,8-dimethyl-6-piperazin-1-yl-3-pyrid-4-ylimidazo[1,2-b]pyridazine], the midpoint of inhibition in data set [2], the IC50, lay at 0.001 µM. For `Fc1ccc(-c2nc3ccc(N4CC5CN(C6CC6)CC5C4)nn3c2-c2ccncc2)cc1` (stereo not shown) [Compound 115, 6-(5-Cyclopropylhexahydropyrrolo[3,4-c]pyrrol-2(1H)-yl)-2-(4-fluorophenyl)-3-pyrid-4-ylimidazo[1,2-b]pyridazine], the melting point is 204 to 206 °C. In addition, in data set [1], the “CE Delta (t + 1 h)” value amounted to 2 nM.
